Source: article PMC10483525, “Synthesis, Structural Investigations, DNA/BSA Interactions, Molecular Docking Studies, and Anticancer Activity of a New 1,4-Disubstituted 1,2,3-Triazole Derivative” (ACS Omega, 2023)

What was measured:
[1] = biological target: T1, BSA (bovine serum albumin) (Bos taurus, UniProt P02769); assay: BSA fluorescence quenching; format: binding; details: for Kq (bimolecular quenching constant): Ksv = kqτ0, τ0 10 ns; for ΔG: van't Hoff equation from Kbin, BSA binding
T1 construct: purchased Merck/Sigma
T1 sequence (P02769 25-607): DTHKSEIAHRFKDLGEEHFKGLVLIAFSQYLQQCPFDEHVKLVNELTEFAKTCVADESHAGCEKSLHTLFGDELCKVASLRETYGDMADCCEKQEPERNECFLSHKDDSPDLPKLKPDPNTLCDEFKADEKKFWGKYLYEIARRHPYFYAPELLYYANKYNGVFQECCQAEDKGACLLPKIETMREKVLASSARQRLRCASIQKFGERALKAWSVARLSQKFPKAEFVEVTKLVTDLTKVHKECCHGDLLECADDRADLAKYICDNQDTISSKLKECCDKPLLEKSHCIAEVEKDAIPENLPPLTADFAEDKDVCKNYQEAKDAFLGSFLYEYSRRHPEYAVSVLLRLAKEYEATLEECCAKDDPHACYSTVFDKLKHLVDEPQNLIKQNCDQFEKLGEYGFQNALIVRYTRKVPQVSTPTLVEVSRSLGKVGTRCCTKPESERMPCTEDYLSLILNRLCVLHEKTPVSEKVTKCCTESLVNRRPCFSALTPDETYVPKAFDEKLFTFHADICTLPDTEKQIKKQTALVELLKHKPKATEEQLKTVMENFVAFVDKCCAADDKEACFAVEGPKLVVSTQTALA
Method: BSA fluorescence spectral studies of the compound and related calculations were the same as those performed for the [CT-DNA + EB] quenching method described in Section 4.5. Detailed experimental procedures and the calculations of the binding data are given in the SI. […]
The quenching efficiency of the compound was analysed using the Stern-Volmer equation.
Io/I = 1 + K sv[Q] = 1 + k qτ0[Q] […]
where I o and I are the emission intensities of CT-DNA+EB complex in the absence and each […]
addition of compound, respectively and [Q] is the concentration of quencher. The Stern-Volmer […]
(quenching) constant, K sv was determined from the slope of the linear plot of I o/I versus [Q].
To have an insight into the kinetics of the competitive binding process, the bimolecular […]
quenching rate constant, k q values were also computed using the Stern-Volmer equation. […]
where n is the number of binding sites per nucleotide. 8
Fluorescence Spectral Studies
Quenching of fluorescence emission of BSA by compound was performed in order to determine […]
its binding constant. Stock concentration of BSA (5 μM) was prepared in 10 mM Tris- HCl […]
buffer at pH = 7.4. The emission spectra of 5 μM BSA solutions in the absence and presence of […]
compound of concentration ranging from 0 to 8 μM were acquired at room temperature. The […]
emission changes were recorded in the λ em range of 300 to 450 nm, with the excitation wavelength set at 280 nm. Each spectrum was recorded after an incubation time of 10 minutes.
The quenching efficiency of the compound was calculated using the Stern-Volmer equation as discussed above. The Stern-Volmer (quenching) constant, K sv was determined from the slope of the linear plot of I o/I versus [Q]. To have an insight into the kinetics of the competitive binding process, the bimolecular quenching rate constant, k q values were also computed using the same Stern Volmer equation, where τ 0 is the average fluorescence lifetime of the BSA alone is 10 nanoseconds. 9 Scatchard plots also gave the binding constant K bin as determined from the fluorescence titration using Scatchard equation. 10 The standard Gibbs free (ΔG) of compound

Caco-2 cells = assay: Annexin V/PI double-staining apoptosis assay (flow cytometry); format: cell-based, human; details: 48 h
Method: calculated from graph. All assays were performed in three replicates per concentration level. 11
8. Annexin-V/PI Double-Staining Assay
Caco-2 (5x10^5 per well) were seeded in 6-well culture plates in medium and incubated for 24 h at 37°C. Then cells were either untreated or treated with the compound 3 (7.5, 15, 30 μM) for additional 48 h. The cells were harvested and resuspended in 400 μl of 1× binding buffer containing Annexin V-FITC (5 μl) and PI (5 μl), and cells were incubated for 15 min at RT (25°C) in the dark. The results were evaluated immediately through flow cytometry (BD Biosciences, San Jose, CA, USA) within 1 h using Annexin V-FITC staining kit (BD […]

EB + CT-DNA adduct = assay: EB displacement (competitive fluorescence emission quenching); format: binding; details: EB 5 μM + CT-DNA 25 μM
Method: The competitive emission quenching experiment was carried out using a well-known intercalating agent and fluorescent probe for DNA, ethidium bromide (EtBr).[83] The compound in varying concentrations (0–150) was added to the [EB (5 μM) + CT-DNA (25 μM)] adduct. The excitation wavelength was fixed to 510 nm, and the emission spectra were recorded (λem = 500–700 nm). The quenching efficiency of the compound was analyzed using the Stern–Volmer and Scatchard equations, and the Stern–Volmer (quenching) constant, Ksv, the bimolecular quenching rate constant, kq, binding constant, Kbin, and the number of binding sites per nucleotide, n, were calculated.[84]
Absorption spectral studies […]
sufficiently free of protein. The DNA concentration per nucleotide was determined by […]
sample solutions to eliminate the absorbance of CT-DNA. […]
mixture was allowed to incubate for 5 minutes before the absorption spectrum was recorded.
The intrinsic binding constant Kb of compound was calculated by using Wolfe-Shimmer […]
Fluorescence spectral studies
The fluorescence quenching experiments were performed for additional support for binding of […]
EB+CT-DNA solution. The fluorescence spectra of 200 μL/well solutions in a 96-well plate
were recorded with 510 nm excitation and the emission spectra of constant [EB+CT-DNA] with
varying the compound concentration were recorded (λ em =500–700). […]

O=Cc1ccc(OCc2cn(-c3ccc(Cl)c(Cl)c3)nn2)cc1O [Compound 3, 4-((1-(3,4-Dichlorophenyl)-1H-1,2,3-triazol-4-yl)methoxy)-2-hydroxybenzaldehyde]
quenching of BSA fluorescence intensity at ∼345 nm ([1]; BSA 5 μM, compound 0 to 8 μM): 69.12% | red shift of BSA emission ([1]; BSA 5 μM, compound 0 to 8 μM): 5 nm | Ksv (Stern–Volmer quenching constant) ([1]; BSA 5 μM, compound 0–8 μM, λex 280 nm): 1.99 × 10^5 M^–1 | Kq (bimolecular quenching constant) ([1]; BSA): 1.99 × 10^13 M^–1·s^–1 | Kq (bimolecular quenching constant) ([1]; BSA, listed as compound 3): ~10^13 M^–1·s^–1 | n (number of binding sites) ([1]; Scatchard equation, BSA): 0.80 | Kd ([1]; Scatchard equation, BSA 5 μM, read-out: Kbin (binding constant) (converted)): 45.9 µM | ΔG [1]: –24.75 kJ·mol^–1 | ΔG ([1]; listed as compound 3): −24.75 kJ·mol^–1 | percentage of apoptosis (early + late) (Caco-2 cells; Caco-2, 7.5 μM): 46.09% | percentage of apoptosis (early + late) (Caco-2 cells; Caco-2, 15 μM): 57.77% | percentage of apoptosis (early + late) (Caco-2 cells; Caco-2, 30 μM): 70.25% | Ksv (Stern–Volmer quenching constant) (EB + CT-DNA adduct; compound 0–150 μM, λex 510 nm, emission 602 nm): 4.13 × 10^3 M^–1 | Kbin (binding constant) (EB + CT-DNA adduct; Scatchard equation): 3.45 × 10^4 M^–1
